Source: patent US20050201938A1, “Method for selectively inhibiting ghrelin action” (priority 2000, published 2005)

What was measured:
[1] = Plasma levels of IGF-I, insulin, glucose and corticosterone after GHRP-2 treatment; type: in vivo; settings: GHRP-2 treated mice
Experimental: (§1) Mice were treated with GHRP-2 for 18 days. […] This was partially a consequence of decreased (p=0.02) lipid utilization measured by indirect calorimetry. Hypothalamic mRNA levels (measured by RT-PCR) of neuropeptide Y (NPY), agouti-related-protein (AGRP), pro-opio-melanocortin (POMC) and […] (MCH) were not changed. Since GHRP-6 increases c-fos expression in NPY-neurons (Vernon, R. G.; J Endocrinol 150, 129-40 (1996)) and because these neurons also release AGRP, a natural melanocyte stimulating hormone antagonist, GHRP-2 treatment was repeated in NPY-knockout mice (NPY-/−). […] However, an increase in AGRP mRNA levels (p=0.008, n=24 in GHRP-2 treated (NPY-/−)) was observed. Plasma levels of IGF-I, insulin, glucose and corticosterone were not changed. […] 200 μg of rat ghrelin was injected subcutaneously into wild-type mice, GHRP-2 or vehicle (phosphate buffered saline). After 5 days of treatment, body weight increased (p=0.00) 12% in both ghrelin- and GHRP-2-treated mice but not in controls. This weight gain was a consequence of decreased energy expenditure and decreased lipid utilization.

[2] = test system: hypothalamic mRNA of NPY, AGRP, POMC, MCH; assay: Hypothalamic mRNA levels measured by RT-PCR, wild-type mice; type: in vivo; settings: GHRP-2 treatment
Experimental: as §1

[3] = In vivo administration to wild-type mice: food intake and body weight; settings: for body weight increase: wild-type mice, subcutaneous injection, after 5 days of treatment, not in controls
Experimental: (§2) Wild-type mice (129SV strain) and NPY-knockout mice were obtained from Taconic Farms®. Eight-week old dwarf rats were purchased at Harlan UK. Animals were housed individually in a temperature controlled environment (25° C.) with a 12-hour light and 12-hour dark (18.00−06.00) photoperiod. All mice had ad libitum access to pelleted mouse food (5008 PMI® Nutrition International) and tap water. Mice were between 9 and 13 weeks of age and were injected daily between 17.00 and 18.00 with 0.1 ml of phosphate buffered saline (PBS) containing 0 or 8 mg/kg/d ghrelin over 13 days. Food intake and body weights were measured daily at 08.00 h. All animal experiments were conducted in accordance with the principles and procedures outlined in the National Institute of Health (NIH) Guide for the Care and Use of Laboratory Animals.
as §1

[4] = test system: NPY-knockout mice (NPY-/-); assay: GHRP-2 treatment repeated in NPY-knockout mice; type: in vivo
Experimental: as §2
Mice were treated with GHRP-2 for 18 days. […] This was partially a consequence of decreased (p=0.02) lipid utilization measured by indirect calorimetry. Hypothalamic mRNA levels (measured by RT-PCR) of neuropeptide Y (NPY), agouti-related-protein (AGRP), pro-opio-melanocortin (POMC) and […] (MCH) were not changed. […]

[5] = In-vivo analysis of body composition by dual-energy X-ray absorptiometry (DXA); parameters: species or system mice
Experimental: Body composition was measured on day 14 of the treatment period by DXA using a Norland p-DEXA® (Norland, USA). The system provides a non-invasive method for quantification of whole body composition and is based on the differential attenuation of high and low energy x-rays by the tissues in the scan area. Soft tissues attenuate the energy beam less than bone; of the soft tissue mass, fat tissue attenuates the beam less than lean tissue. Fat mass consists primarily of adipose tissue, but lean mass includes organs, tendons, cartilage, blood and body water in addition to skeletal muscle. In the present study, fat mass, lean mass and bone mineral content (bone mass) were measured and reported. Mice were anesthetized with inhalation of isoflorane and placed on the instrument platform in ventral position. Measurements were performed at a speed of 10 mm/min and a resolution of 0.5×0.5 mm. Quality controls using phantom ID2232 and Calibration Standard 82315 (Norland) were performed before starting measurements.
as §1

[6] = Indirect calorimetry (energy expenditure, fuel utilization); type: in vivo, mice
Experimental: Twenty-four hour energy expenditure (EE) and respiratory quotient (RQ) were measured by indirect calorimetry using an open circuit calorimetry system (Oxymax, Columbus Instruments International Corporation; Columbus, Ohio). The instrument was calibrated before each experiment using standard gas mixtures containing known concentrations of CO2, N2 and O2. After the first daily injection, animals were placed in calorimeter chambers containing food and water in a room maintained under identical conditions as those described above throughout the treatment period. Gas sampled from each of 10 chambers was first dried by a condenser. The volume of oxygen consumed (VO2) and carbon dioxide produced (VCO2) in an hour was measured using a paramagnetic oxygen sensor and a spectrophotometric CO2 sensor. Such measurements were obtained hourly for 24 hours. RQ is the ratio of VCO2 to VO2. EE was calculated as the product of calorific value of oxygen (CV) and VO2 per kilogram (kg) of body weight; where CV=3.815+1.232*RQ (Elia, M. & Livesey, G, World Rev Nutr Diet 70, 68-131 (1992)). Total calories expended were calculated to determine daily fuel utilization. To calculate proportion of protein, fat and carbohydrate that is utilized during that 24-hour period, we used Flatt's proposal and assumed that protein utilization was equivalent to protein intake for adult stable animals (Flatt, J. P., J. Nutr Biochem 2, 193-202 (1991)). Using formulae and constants derived by Elia and Livesey (Elia, M. & Livesey, G., World Rev Nutr Diet, 70, 68-131 (1992)), we calculated the percent of daily fuel utilization derived from carbohydrate and fat. Daily caloric intake was calculated as (mass of daily food intake in g)*(physiological fuel value of the diet in kcal/g). Locomotor activity was measured by counting the number of times an animal breaks a new light beam during each of 24 hours in the calorimeter.
as §1

[7] = mice treated with GHRP-2 for 18 days, n=42, p=0.001
[8] = wild-type mice, 5 days of treatment

Row | Substance | plasma level of IGF-I [1] | plasma level of corticosterone [1] | plasma level of glucose [1] | plasma level of insulin [1] | hypothalamic mRNA level of agouti-related-protein (AGRP) [2] | hypothalamic mRNA level of melanocyte-concentrating hormone (MCH) [2] | hypothalamic mRNA level of neuropeptide Y (NPY) [2] | hypothalamic mRNA level of pro-opio-melanocortin (POMC) [2] | body weight [3, 7] | food intake [3, 7] | body weight increase [3] | energy balance [4] | AGRP mRNA levels ([4]; p=0.008, n=24) | fat mass ([5]; mice, 18 days treatment, DXA, p=0.002) | bone mass ([5]; mice, 18 days treatment, DXA, p=0.017) | lean mass ([5]; mice, 18 days treatment, DXA, p=0.63) | lipid utilization ([6]; mice, 18 days treatment, indirect calorimetry, p=0.02) | energy expenditure [6, 8] | lipid utilization [6, 8] | effect of administration in an animal model (fat deposition) ([5]; animal model, inventors' work, Nature 407: 908-913 (2000))
1 | GHRP-2 | not changed | not changed | not changed | not changed | not changed | not changed | not changed | not changed | dose-dependent increase | dose-dependent increase | 12% | positive energy balance | increase | significant increase | significant increase | no change | decreased | decreased | decreased | –
2 | ghrelin | – | – | – | – | – | – | – | – | – | – | 12% | – | – | – | – | – | – | decreased | decreased | predominantly lead to fat deposition
